Here are results for 17 compounds from patent US20240270698A2, “NOVEL PYRIMIDINE DERIVATIVE AND USE THEREOF” (KOREA RESEARCH INSTITUTE OF CHEMICAL TECHNOLOGY, priority 2019, published 2024).

Data set [1] addresses T1, human recombinant MLK3 protein (Homo sapiens, UniProt Q16584).
T1 construct: purchased Eurofins
Briefly: MLK3 kinase activity assay (Eurofins, gamma-33P-ATP, filtermat scintillation counting). It counts as biochemical. The conditions noted are these: human recombinant MLK3, 120 minutes at room temperature. How it is done: (§1) Compounds 1 to 119 synthesized in Example 1 according to the present disclosure were assayed for inhibitory activity against MLK3/LRRK2 enzymes and anticancer activity against HepG2/HS746T cancer cells, and the results are summarized in Table 1, below.
(§2) Inhibitory activity against MLK3 and LRRK2 enzymes was evaluated in Eurofins. In brief, human recombinant MLK3 protein was mixed with the compounds in a reaction buffer (8 mM MOPS (pH 7.0), 0.2 mM EDTA, 0.33 mg/mL myelin basic protein, 5 mM DTT) to which a mixture of 10 mM magnesium acetate and gamma-33P-ATP was then added before incubation at room temperature for 120 minutes. Afterward, the reaction was terminated with 0.5% phosphoric acid. Ten μL of the total mixture was spotted onto a P30 filtermat which was then washed four times for 4 minutes with 0.425% phosphoric acid and once in methanol prior to scintillation counting. Values for the activity of MLK3 were expressed as % of the control. For the activity of LRRK2, human recombinant LRRK2 protein was mixed with the compounds in a reaction buffer (50 mM HEPES (pH 8.0), 0.2 mM EDTA, 0.01% Brij-35, 1% (w/v) BSA, 5 mM DTT, 250 uM substrate peptide RLGRDKYKTLRQIRQ) and then reacted with a mixture of 10 mM magnesium acetate and gamma-33P-ATP at room temperature for 40 minutes. Afterward, the reaction was terminated with 0.5% phosphoric acid. Ten μL of the total mixture was spotted onto a P30 filtermat which was then washed four times for 4 minutes with 0.425% phosphoric acid and once in methanol prior to scintillation counting. Values for the activity of LRRK2 were expressed as % of the control.

Data set [2] concerns the target T2, human recombinant LRRK2 protein (Homo sapiens, UniProt Q5S007).
T2 construct: purchased Eurofins
Briefly: LRRK2 kinase activity assay (Eurofins, gamma-33P-ATP, filtermat scintillation counting). It counts as biochemical. The conditions noted are these: human recombinant LRRK2, 40 minutes at room temperature. How it is done: as §1, §2

A further data set relates to HS746T cancer cells. Briefly: Anticancer activity, cell viability by CCK-8, HS746T. The format is cell-based. The conditions noted are these: 72 hours. Here is the method: (§3) Compounds 1 to 119 synthesized in Example 1 according to the present disclosure were assayed for inhibitory activity against MLK3/LRRK2 enzymes and anticancer activity against HepG2/H[…] cancer cells, and the results are summarized in Table 1, below. Assay for anticancer activity was conducted as follows. HepG2 and H[…] cancer cells were purchased from the Korean Cell Line Bank and cultured according to the instruction provided thereby. One hundred μL of a culture of the cells were seeded at a density of 4,000 cells/well into 96-well plates. After 24 hours, the cells were treated with the compounds for 72 hours. Then, cell viability was assayed using CCK-8 and expressed as % of the control.

Another data set concerns HepG2 cancer cells. Briefly: Anticancer activity, cell viability by CCK-8, HepG2. The format is cell-based. The conditions noted are these: HepG2, 10 μM, 72 hours. Here is the method:
as §3

Structures are written as SMILES.

T1 sequence (Q16584 whole entry): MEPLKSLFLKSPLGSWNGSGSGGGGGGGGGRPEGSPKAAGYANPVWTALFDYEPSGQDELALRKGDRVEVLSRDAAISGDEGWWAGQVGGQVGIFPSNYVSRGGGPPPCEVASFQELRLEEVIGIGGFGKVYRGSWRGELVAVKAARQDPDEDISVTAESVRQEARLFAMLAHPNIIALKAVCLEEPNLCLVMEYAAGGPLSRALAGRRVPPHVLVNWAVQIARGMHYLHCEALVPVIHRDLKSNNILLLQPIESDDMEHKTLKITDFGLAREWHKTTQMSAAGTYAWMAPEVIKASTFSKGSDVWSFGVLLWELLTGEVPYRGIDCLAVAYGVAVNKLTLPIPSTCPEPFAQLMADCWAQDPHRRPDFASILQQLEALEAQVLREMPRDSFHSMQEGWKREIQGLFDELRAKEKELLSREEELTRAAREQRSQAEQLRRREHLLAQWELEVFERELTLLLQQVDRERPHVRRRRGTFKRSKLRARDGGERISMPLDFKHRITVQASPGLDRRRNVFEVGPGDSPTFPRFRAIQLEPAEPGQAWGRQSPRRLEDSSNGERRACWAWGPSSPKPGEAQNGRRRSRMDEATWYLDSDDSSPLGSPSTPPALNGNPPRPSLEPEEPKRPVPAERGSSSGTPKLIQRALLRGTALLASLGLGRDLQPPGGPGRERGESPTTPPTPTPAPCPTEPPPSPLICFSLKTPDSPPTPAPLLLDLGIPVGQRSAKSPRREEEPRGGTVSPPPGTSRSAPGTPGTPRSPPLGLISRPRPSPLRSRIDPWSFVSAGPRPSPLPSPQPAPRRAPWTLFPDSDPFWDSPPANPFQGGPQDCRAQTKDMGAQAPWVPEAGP
T2 sequence (Q5S007 whole entry): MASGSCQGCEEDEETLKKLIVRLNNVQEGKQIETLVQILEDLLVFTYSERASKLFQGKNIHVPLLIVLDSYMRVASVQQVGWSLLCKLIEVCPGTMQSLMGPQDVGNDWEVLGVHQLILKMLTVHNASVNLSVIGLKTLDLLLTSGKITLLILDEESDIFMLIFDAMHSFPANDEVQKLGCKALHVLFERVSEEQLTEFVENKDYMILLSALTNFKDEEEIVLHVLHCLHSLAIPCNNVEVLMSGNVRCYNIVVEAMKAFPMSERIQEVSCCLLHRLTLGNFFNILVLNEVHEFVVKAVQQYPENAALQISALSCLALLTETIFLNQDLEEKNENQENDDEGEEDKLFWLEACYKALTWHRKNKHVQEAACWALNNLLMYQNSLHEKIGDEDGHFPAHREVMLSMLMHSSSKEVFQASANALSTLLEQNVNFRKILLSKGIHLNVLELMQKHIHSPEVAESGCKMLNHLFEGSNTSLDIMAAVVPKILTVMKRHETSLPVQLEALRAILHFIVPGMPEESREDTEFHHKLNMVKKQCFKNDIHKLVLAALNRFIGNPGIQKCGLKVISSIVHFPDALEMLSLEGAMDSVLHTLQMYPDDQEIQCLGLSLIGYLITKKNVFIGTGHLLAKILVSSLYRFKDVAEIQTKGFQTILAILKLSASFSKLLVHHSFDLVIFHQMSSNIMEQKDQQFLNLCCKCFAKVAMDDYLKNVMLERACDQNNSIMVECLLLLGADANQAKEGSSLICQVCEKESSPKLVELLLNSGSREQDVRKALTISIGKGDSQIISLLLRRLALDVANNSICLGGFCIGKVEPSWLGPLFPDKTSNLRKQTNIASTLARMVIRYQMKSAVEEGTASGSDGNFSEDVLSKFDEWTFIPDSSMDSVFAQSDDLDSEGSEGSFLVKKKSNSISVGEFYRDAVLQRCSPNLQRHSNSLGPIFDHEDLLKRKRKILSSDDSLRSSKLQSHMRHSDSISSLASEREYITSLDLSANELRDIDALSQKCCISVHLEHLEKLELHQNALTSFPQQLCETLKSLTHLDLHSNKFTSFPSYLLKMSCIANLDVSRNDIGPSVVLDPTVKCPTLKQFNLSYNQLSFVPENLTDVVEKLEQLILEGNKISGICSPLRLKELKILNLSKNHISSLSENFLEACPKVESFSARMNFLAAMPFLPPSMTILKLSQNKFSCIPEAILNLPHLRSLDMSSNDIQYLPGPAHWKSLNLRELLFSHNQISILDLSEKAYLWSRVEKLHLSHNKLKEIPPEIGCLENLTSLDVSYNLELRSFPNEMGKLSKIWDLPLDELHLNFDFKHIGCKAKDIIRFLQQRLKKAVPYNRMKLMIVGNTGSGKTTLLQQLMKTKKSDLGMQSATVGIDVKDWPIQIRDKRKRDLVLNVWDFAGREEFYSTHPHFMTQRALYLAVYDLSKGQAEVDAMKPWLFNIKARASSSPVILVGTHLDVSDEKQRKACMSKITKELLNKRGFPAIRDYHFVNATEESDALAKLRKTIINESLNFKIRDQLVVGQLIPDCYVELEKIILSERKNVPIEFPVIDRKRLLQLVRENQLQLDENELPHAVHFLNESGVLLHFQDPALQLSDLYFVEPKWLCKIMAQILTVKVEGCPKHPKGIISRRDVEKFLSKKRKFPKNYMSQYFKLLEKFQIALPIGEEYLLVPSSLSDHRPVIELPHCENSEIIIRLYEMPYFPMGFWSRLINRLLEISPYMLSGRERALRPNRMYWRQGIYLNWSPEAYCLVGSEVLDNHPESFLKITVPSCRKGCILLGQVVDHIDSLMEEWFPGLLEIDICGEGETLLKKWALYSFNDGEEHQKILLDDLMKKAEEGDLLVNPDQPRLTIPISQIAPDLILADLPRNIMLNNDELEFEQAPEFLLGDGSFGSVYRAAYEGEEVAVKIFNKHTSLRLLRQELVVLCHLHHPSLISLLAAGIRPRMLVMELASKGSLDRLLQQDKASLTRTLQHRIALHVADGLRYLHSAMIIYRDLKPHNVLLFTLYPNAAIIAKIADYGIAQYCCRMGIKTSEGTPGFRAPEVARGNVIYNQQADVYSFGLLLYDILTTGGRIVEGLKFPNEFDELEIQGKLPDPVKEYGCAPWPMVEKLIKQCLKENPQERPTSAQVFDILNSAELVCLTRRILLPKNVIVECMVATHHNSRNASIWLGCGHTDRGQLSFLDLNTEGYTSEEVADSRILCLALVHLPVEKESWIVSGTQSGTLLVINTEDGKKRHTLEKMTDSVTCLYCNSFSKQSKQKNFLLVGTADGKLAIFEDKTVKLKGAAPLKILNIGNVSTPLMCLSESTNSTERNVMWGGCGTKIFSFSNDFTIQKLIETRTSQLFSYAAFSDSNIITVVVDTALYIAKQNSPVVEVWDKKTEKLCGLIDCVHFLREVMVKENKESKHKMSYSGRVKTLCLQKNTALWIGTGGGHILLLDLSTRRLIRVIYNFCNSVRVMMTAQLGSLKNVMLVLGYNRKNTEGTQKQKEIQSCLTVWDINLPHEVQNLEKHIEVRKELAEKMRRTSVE

As usually defined, the IC50 is the midpoint of a concentration-inhibition curve. Turning to `Cc1nc2ccc(Nc3ncc(Cl)c(Nc4ccccc4P(C)(C)=O)n3)cc2s1` [compound 17, (2-((5-Chloro-2-((2-methylbenzo[d]thiazol-6-yl)amino)pyrimidin-4-yl)amino)phenyl)dimethylphosphine oxide], the half-inhibitory concentration (IC50) in data set [1] and in data set [2] was 1 to 10 nM each time. In addition, the “Cell viability (% of Con. 10 μM) HS746T” value in the data set with HS746T cancer cells is given as 17 % of Con. For the same compound, in the data set with HepG2 cancer cells, the “Cell viability (% of Con. 10 μM) HepG2” value was 35 % of Con.
Regarding `CP(C)(=O)c1ccccc1Nc1nc(Nc2ccc3ncccc3c2)ncc1Cl` [compound 18, (2-((5-Chloro-2-(quinolin-6-ylamino)pyrimidin-4-yl)amino)phenyl) dimethylphosphine oxide], the figures for the IC50 in data set [1] and in data set [2] were 10 to 100 nM and 1 to 10 nM, respectively. Further, the “Cell viability (% of Con. 10 μM) HS746T” value in the data set on HS746T cancer cells was 16 % of Con. Besides, the “Cell viability (% of Con. 10 μM) HepG2” value in the data set with HepG2 cancer cells is 32 % of Con.
Turning to `CP(C)(=O)c1ccccc1Nc1nc(Nc2cnc3ccccc3c2)ncc1Cl` [compound 19, (2-((5-Chloro-2-(quinolin-3-ylamino)pyrimidin-4-yl)amino)phenyl) dimethylphosphine oxide], the half-inhibitory concentration (IC50) in data set [1] and in data set [2] was 10 to 100 nM in each case. Besides, the “Cell viability (% of Con. 10 μM) HS746T” value in the data set with HS746T cancer cells is 25 % of Con. For the same compound, the “Cell viability (% of Con. 10 μM) HepG2” value in the data set on HepG2 cancer cells is recorded as 34 % of Con.
Consider `CP(C)(=O)c1ccccc1Nc1nc(Nc2ccc3nc(S)sc3c2)ncc1Cl` [compound 23, (2-((5-Chloro-2-((2-mercaptobenzo[d]thiazol-6-yl)amino)pyrimidin-4-yl)amino)phenyl)dimethylphosphine oxide], for which the IC50 in data set [1] and in data set [2] was 10 to 100 nM throughout. Moreover, in the data set with HS746T cancer cells, the “Cell viability (% of Con. 10 μM) HS746T” value was 26 % of Con. Also, the “Cell viability (% of Con. 10 μM) HepG2” value in the data set with HepG2 cancer cells is on record as 27 % of Con.
In the case of `Cc1cccc2sc(Nc3ncc(Cl)c(Nc4ccccc4P(C)(C)=O)n3)nc12` [compound 27, (2-((5-Chloro-2-((4-methylbenzo[d]thiazol-2-yl)amino)pyrimidin-4-yl)amino)phenyl)dimethylphosphine oxide], the IC50 was 100 to 1000 nM in data set [1] and greater than 1000 nM in data set [2]. In the data set with HS746T cancer cells, the “Cell viability (% of Con. 10 μM) HS746T” value was 74 % of Con. Further, the “Cell viability (% of Con. 10 μM) HepG2” value with HepG2 cancer cells is 81 % of Con.
In the same order, the values of `CP(C)(=O)c1ccccc1Nc1ncc(Cl)c(Nc2ccccc2P(C)(C)=O)n1` [compound 30, (((5-Chloropyrimidin-2,4-diyl)bis(azanediyl))bis(2,1-phenylene)) bis(dimethylphosphineoxide)] are greater than 1000 nM, greater than 1000 nM, 85 % of Con and 102 % of Con.
Take `CN(C)c1ncc(F)c(NC2CCN(S(C)(=O)=O)CC2)n1` [compound 37, 5-Fluoro-N^2,N^2-dimethyl-N^4-(1-(methylsulfonyl)piperidin-4-yl) pyrimidine-2,4-diamine]: the IC50 in data set [1] and in data set [2] was greater than 1000 nM each time. In the data set with HS746T cancer cells, the “Cell viability (% of Con. 10 μM) HS746T” value was 90 % of Con. Also, in the data set on HepG2 cancer cells, the “Cell viability (% of Con. 10 μM) HepG2” value is on record as 100 % of Con.
For `CS(=O)(=O)N1CCC(Nc2nc(Nc3ccnc4c(F)cccc34)ncc2F)CC1` [compound 38, 5-Fluoro-N^2-(8-fluoroquinolin-4-yl)-N^4-(1-(methylsulfonyl)piperidin-4-yl)pyrimidine-2,4-diamine], the 50% inhibitory concentration (IC50) in data set [1] was greater than 1000 nM; in data set [2] it was 100 to 1000 nM. Further, the “Cell viability (% of Con. 10 μM) HS746T” value in the data set with HS746T cancer cells is recorded as 90 % of Con. Also, the “Cell viability (% of Con. 10 μM) HepG2” value in the data set with HepG2 cancer cells is recorded as 73 % of Con.
Take `CP(C)(=O)c1ccccc1Nc1nc(Nc2ccc3c(c2)C(=O)NCC3)ncc1Cl` [compound 41, 7-((5-Chloro-4-((2-(dimethylphosphoryl)phenyl)amino)pyrimidin-2-yl)amino)-3,4-dihydroisoquinolin-1(2H)-one]: the IC50 in data set [1] lay within 1 to 10 nM; in data set [2] it was 10 to 100 nM. For the same compound, the “Cell viability (% of Con. 10 μM) HS746T” value in the data set on HS746T cancer cells is listed as 33 % of Con. Besides, the “Cell viability (% of Con. 10 μM) HepG2” value with HepG2 cancer cells is 26 % of Con.
In the same order, the values of `CC1(C)c2cc(Nc3ncc(Cl)c(Nc4ccccc4P(C)(C)=O)n3)ccc2CCN1C(=O)C(F)(F)F` [compound 42, 1-(7-((5-Chloro-4-((2-(dimethylphosphoryl)phenyl)amino)pyrimidin-2-yl)amino)-1,1-dimethyl-3,4-dihydroisoquinolin-2(1H)-yl)-2,2,2-trifluoroethan-1-one] are 1 to 10 nM, 1 to 10 nM, 30 % of Con and 48 % of Con.
The like results for `CC1(C)NCCc2ccc(Nc3ncc(Cl)c(Nc4ccccc4P(C)(C)=O)n3)cc21` [compound 44, (2-((5-Chloro-2-((1,1-dimethyl-1,2,3,4-tetrahydroisoquinolin-7-yl)amino)pyrimidin-4-yl)amino)phenyl)dimethylphosphine oxide] were, in that order, 1 to 10 nM, 1 to 10 nM, 17 % of Con and 53 % of Con.
The like results for `CP(C)(=O)c1ccccc1Nc1nc(Nc2ccc3c(c2)CN(C(=O)C(F)(F)F)CC3)ncc1Cl` [compound 46, 1-(7-((5-Chloro-4-((2-(dimethylphosphoryl)phenyl)amino)pyrimidin-2-yl)amino)-3,4-dihydroisoquinolin-2(1H)-yl)-2,2,2-trifluoroethan-1-one] were, in that order, 1 to 10 nM, 1 to 10 nM, 13 % of Con and 26 % of Con.
For `CP(C)(=O)c1ccccc1Nc1nc(Nc2ccc3c(c2)CNCC3)ncc1Cl` [compound 47, (2-((5-Chloro-2-((1,2,3,4-tetrahydroisoquinolin-7-yl)amino)pyrimidin-4-yl)amino)phenyl)dimethylphosphine oxide], the IC50 in data set [1] and in data set [2] was 1 to 10 nM in each case. The “Cell viability (% of Con. 10 μM) HS746T” value in the data set with HS746T cancer cells was 8 % of Con. Further, the “Cell viability (% of Con. 10 μM) HepG2” value in the data set with HepG2 cancer cells was 24 % of Con.
As to `CP(C)(=O)c1ccccc1Nc1nc(Nc2ccc3c(c2)CCN(C(=O)C(F)(F)F)C3)ncc1Cl` [compound 48, 1-(6-((5-Chloro-4-((2-(dimethylphosphoryl)phenyl)amino)pyrimidin-2-yl)amino)-3,4-dihydroisoquinolin-2(1H)-yl)-2,2,2-trifluoroethan-1-one], the IC50 in data set [1] and in data set [2] was 1 to 10 nM each time. For the same compound, the “Cell viability (% of Con. 10 μM) HS746T” value in the data set with HS746T cancer cells is listed as 9 % of Con. In the data set on HepG2 cancer cells, the “Cell viability (% of Con. 10 μM) HepG2” value is 37 % of Con.
Regarding `CP(C)(=O)c1ccccc1Nc1nc(Nc2ccc3c(c2)CCNC3)ncc1Cl` [compound 49, (2-((5-Chloro-2-((1,2,3,4-tetrahydroisoquinolin-6-yl)amino)pyrimidin-4-yl)amino)phenyl)dimethylphosphine oxide], the IC50 in data set [1] and in data set [2] was 1 to 10 nM in each case. Moreover, the “Cell viability (% of Con. 10 μM) HS746T” value in the data set with HS746T cancer cells is 0.3 % of Con. In addition, the “Cell viability (% of Con. 10 μM) HepG2” value in the data set with HepG2 cancer cells was 31 % of Con.
For the compound `CC1(C)CN(C(=O)C(F)(F)F)Cc2cc(Nc3ncc(Cl)c(Nc4ccccc4P(C)(C)=O)n3)ccc21` [compound 50, 1-(7-((5-Chloro-4-((2-(dimethylphosphoryl)phenyl)amino)pyrimidin-2-yl)amino)-4,4-dimethyl-3,4-dihydroisoquinolin-2(1H)-yl)-2,2,2-trifluoroethan-1-one], the half-maximal inhibitory concentration (IC50) in data set [1] and in data set [2] was 1 to 10 nM each time. In addition, the “Cell viability (% of Con. 10 μM) HS746T” value with HS746T cancer cells is reported as 2 % of Con. The “Cell viability (% of Con. 10 μM) HepG2” value in the data set on HepG2 cancer cells is recorded as 20 % of Con.
As for `CC1NCCc2ccc(Nc3ncc(Cl)c(Nc4ccccc4P(C)(C)=O)n3)cc21` (centres unmarked) [compound 51, (2-((5-Chloro-2-((1-methyl-1,2,3,4-tetrahydroisoquinolin-7-yl)amino)pyrimidin-4-yl)amino)phenyl)dimethylphosphine oxide], the 50% inhibitory concentration (IC50) in data set [1] and in data set [2] was 1 to 10 nM throughout. Besides, in the data set on HS746T cancer cells, the “Cell viability (% of Con. 10 μM) HS746T” value is on record as 2 % of Con. Moreover, in the data set with HepG2 cancer cells, the “Cell viability (% of Con. 10 μM) HepG2” value is 24 % of Con.
